These results are taken from ChEMBL document CHEMBL1201862, “PubChem BioAssay data set” (2004).

Counter-ions that a name gives are not always drawn.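 How tested: cells in 96-well plates exposed to compound for 48 hours at five concentrations. GI50 is the concentration that inhibits growth by half.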 Active and inactive are the calls of the source. Rule as the data show it: active = GI50 up to about 1.1 µM and inactive = higher.

Test systems include 786-0; A549; CAKI-1; DU-145; HCT-15; HL-60; Hs-578T; IGROV-1; K562; MDA-MB-435; NCI-H226; NCI-H460; NCI-H522; OVCAR-5; PC-3; RPMI-8226; SF-268; SK-MEL-2; SK-MEL-5; U-251.
Experiment in all cases: growth of human tumour cells (NCI), 48 h

For `Cc1ccc2nc(/C=N/c3ccccc3Cl)cc(C)c2c1`, the GI50 was 16.7 µM (inactive) in the test on 786-0; > 100 µM (inactive) with A549; 30.8 µM (inactive) with CAKI-1; 46.7 µM (inactive) with DU-145; 18.4 µM with HCT-15; 2.73 µM (inactive) in the test with HL-60. Also, the GI50 is 25.5 µM (inactive) with Hs-578T; 18.9 µM (inactive) in the test with IGROV-1; 19.1 µM (inactive) in the test on K562; 12.7 µM (inactive) in the test on MDA-MB-435; 20.6 µM (inactive) in the test on NCI-H226; 17.2 µM (inactive) with NCI-H460. The GI50 with NCI-H522 is 20 µM (inactive); with OVCAR-5, 42.3 µM (inactive); with PC-3 it was 25.4 µM (inactive); with RPMI-8226, 8.75 µM (inactive); in the test on SF-268 it was 16 µM (inactive); with SK-MEL-2, 40.2 µM (inactive). The GI50 with SK-MEL-5 is 14.9 µM (inactive); with U-251, 20.7 µM (inactive).

Take `C[C@H]1C[C@H]2[C@@H]3C(C)(C)O[C@]4(O)C(=O)[C@]5(O)[C@@H](C)CC[C@H]1[C@]25C(=O)[C@]34C`: the GI50 in the test with 786-0 is 75.5 µM (inactive); in the test on A549 it was 41.6 µM (inactive); in the test with CAKI-1, 39.4 µM (inactive); with DU-145, 48.2 µM (inactive); in the test on HCT-15, 33.9 µM; in the test with HL-60, 29.4 µM (inactive). Moreover, the GI50 was 37.5 µM (inactive) in the test with Hs-578T; 64 µM (inactive) in the test on IGROV-1; 25.5 µM (inactive) in the test with K562; 32.8 µM (inactive) in the test with MDA-MB-435; 31.3 µM (inactive) in the test with NCI-H226; 30.2 µM (inactive) in the test on NCI-H460. Further, the GI50 is 18 µM (inactive) with NCI-H522; 65.2 µM (inactive) in the test on OVCAR-5; 44.1 µM (inactive) with PC-3; 18.1 µM (inactive) in the test with RPMI-8226; 45.7 µM (inactive) in the test with SF-268; 31.3 µM (inactive) in the test with SK-MEL-2. Also, the GI50 in the test with SK-MEL-5 was 28.4 µM (inactive); in the test on U-251 it was 60.3 µM (inactive).

Regarding `CCN(CC)c1ccc(/C=C/C2=NN(c3cccc(S(=O)(=O)O)c3)C3(C2)SCC(=O)N3c2nc3ccccc3s2)cc1` (stereo not given), the GI50 in the test on 786-0 was 63.8 µM (inactive); in the test on A549 it was 32.7 µM (inactive); in the test with CAKI-1, 76.6 µM (inactive); in the test with DU-145, 27.4 µM (inactive); in the test with HCT-15 it was 45.6 µM; in the test with HL-60, 24 µM (inactive). Also, the GI50 with Hs-578T was 33.3 µM (inactive); in the test with IGROV-1, 41.7 µM (inactive); in the test with K562 it was 17.7 µM (inactive); with MDA-MB-435, 23.6 µM (inactive); in the test with NCI-H226 it was 16.8 µM (inactive); with NCI-H460 it was 36.5 µM (inactive). Besides, the GI50 in the test on NCI-H522 is 18.5 µM (inactive); in the test on OVCAR-5, > 100 µM (inactive); in the test on PC-3, 25.8 µM (inactive); in the test with RPMI-8226, 17.9 µM (inactive); in the test on SF-268, 40.5 µM (inactive); in the test with SK-MEL-2, 40.1 µM (inactive). Also, the GI50 in the test with SK-MEL-5 was 21.1 µM (inactive); in the test with U-251 it was 25.1 µM (inactive).

For the compound `O=C1c2cc(Cc3ccccc3)c(=O)c(Cc3ccccc3)cc2C(=O)c2cc(Cc3ccccc3)c(=O)c(Cc3ccccc3)cc21`, the GI50 in the test on 786-0 was > 100 µM (inactive); in the test with A549 it was > 100 µM (inactive); with CAKI-1, > 100 µM (inactive); with DU-145 it was > 100 µM (inactive); in the test on HCT-15, over 100 µM; in the test with HL-60, > 100 µM (inactive). The GI50 with Hs-578T is > 100 µM (inactive); with IGROV-1, > 100 µM (inactive); with K562, 89.9 µM (inactive); with MDA-MB-435, > 100 µM (inactive); in the test with NCI-H226 it was > 100 µM (inactive); in the test on NCI-H460, > 100 µM (inactive). The GI50 with NCI-H522, in the test on OVCAR-5, with PC-3, with RPMI-8226, in the test on SF-268 and in the test on SK-MEL-2 was > 100 µM (inactive) throughout. In addition, the GI50 in the test with SK-MEL-5 and in the test with U-251 was > 100 µM (inactive) throughout.

Consider `CCc1nc(N)nc(N)c1-c1ccc(NC)c([N+](=O)[O-])c1`, for which the GI50 in the test with 786-0 is 0.558 µM (active); in the test on A549 it was 0.192 µM (active); in the test with CAKI-1, 0.767 µM (active); in the test with DU-145 it was 2.14 µM (inactive); in the test with HCT-15, 0.398 µM; with HL-60, 0.308 µM (active). For the same compound, the GI50 in the test on Hs-578T was 23.6 µM (inactive); in the test with IGROV-1 it was 0.904 µM (active); in the test on K562 it was 0.0631 µM (active); in the test with MDA-MB-435 it was 0.586 µM (active); with NCI-H226, 28.6 µM (inactive); in the test with NCI-H460, 0.15 µM (active). The GI50 in the test with NCI-H522 was 1.88 µM (inactive); in the test on OVCAR-5, 17.1 µM (inactive); with PC-3 it was 0.804 µM (active); with RPMI-8226, 3.72 µM (inactive); in the test on SF-268 it was 0.815 µM (active); in the test on SK-MEL-2, 21.2 µM (inactive). Further, the GI50 in the test on SK-MEL-5 is 0.63 µM (active); with U-251, 0.631 µM (active).

With `NC(=O)NC1NC(=O)NC1=O` (stereo not given) [ALLANTOIN], the GI50 in the test with 786-0 was > 100 µM (inactive); in the test with A549, > 100 µM (inactive); in the test with CAKI-1 it was > 100 µM (inactive); in the test with DU-145 it was > 100 µM (inactive); with HCT-15, over 100 µM; in the test on HL-60 it was > 100 µM (inactive). For the same compound, the GI50 in the test on Hs-578T, with IGROV-1, in the test on K562, in the test with MDA-MB-435, in the test with NCI-H226 and in the test on NCI-H460 was > 100 µM (inactive) in each case. For the same compound, the GI50 in the test with NCI-H522, in the test on OVCAR-5, in the test with PC-3, in the test with RPMI-8226, in the test with SF-268 and in the test on SK-MEL-2 was > 100 µM (inactive) in each case. Also, the GI50 in the test with SK-MEL-5 and in the test on U-251 was > 100 µM (inactive) each time.

For the compound `CN1CCC(CN2c3ccccc3Sc3ccccc32)C1` (stereo not given) [METHDILAZINE HYDROCHLORIDE], the GI50 is 14.7 µM (inactive) in the test with 786-0; 16.2 µM (inactive) in the test with A549; 14.7 µM (inactive) in the test on CAKI-1; 17.8 µM (inactive) in the test with DU-145; 16.2 µM in the test on HCT-15; 14.7 µM (inactive) in the test on HL-60. For the same compound, the GI50 with Hs-578T was 15.4 µM (inactive); in the test on IGROV-1, 17.3 µM (inactive); in the test on K562 it was 12.3 µM (inactive); in the test on MDA-MB-435, 10.1 µM (inactive); with NCI-H226, 19.5 µM (inactive); in the test with NCI-H460 it was 13.9 µM (inactive). Also, the GI50 with NCI-H522 is 16.7 µM (inactive); with OVCAR-5, 16.7 µM (inactive); in the test with PC-3 it was 12.4 µM (inactive); in the test with RPMI-8226, 15.1 µM (inactive); in the test on SF-268 it was 15.3 µM (inactive); in the test on SK-MEL-2, 15.7 µM (inactive). The GI50 in the test on SK-MEL-5 and in the test on U-251 was 13.7 µM (inactive) in each case.
